pIC50: −log10 of the molar value.
How the values were obtained:
Acetylcholinesterase [1] = target: T1, Acetylcholinesterase (Homo sapiens, UniProt P22303); experiment: Inhibition of acetylcholinesterase (unknown origin) assessed as reduction in formation of 5-thio-2-nitrobenzoate from acetylthiocholine iodide at 5 ug/ml preincubated for 15 mins followed by substrate addition measured after 30 mins by Ellman's method
Acetylcholinesterase [2] = target: T1, Acetylcholinesterase; experiment: Inhibition of acetylcholinesterase (unknown origin) assessed as reduction in formation of 5-thio-2-nitrobenzoate from acetylthiocholine iodide preincubated for 15 mins followed by substrate addition measured after 30 mins by Ellman's method
[3] = Cytotoxicity against human SH-SY5Y cells assessed as reduction in cell viability at 0.2 to 40 uM measured after 24 hrs by MTT assay; type: toxicity, cell-based

T1 sequence (P22303 whole entry): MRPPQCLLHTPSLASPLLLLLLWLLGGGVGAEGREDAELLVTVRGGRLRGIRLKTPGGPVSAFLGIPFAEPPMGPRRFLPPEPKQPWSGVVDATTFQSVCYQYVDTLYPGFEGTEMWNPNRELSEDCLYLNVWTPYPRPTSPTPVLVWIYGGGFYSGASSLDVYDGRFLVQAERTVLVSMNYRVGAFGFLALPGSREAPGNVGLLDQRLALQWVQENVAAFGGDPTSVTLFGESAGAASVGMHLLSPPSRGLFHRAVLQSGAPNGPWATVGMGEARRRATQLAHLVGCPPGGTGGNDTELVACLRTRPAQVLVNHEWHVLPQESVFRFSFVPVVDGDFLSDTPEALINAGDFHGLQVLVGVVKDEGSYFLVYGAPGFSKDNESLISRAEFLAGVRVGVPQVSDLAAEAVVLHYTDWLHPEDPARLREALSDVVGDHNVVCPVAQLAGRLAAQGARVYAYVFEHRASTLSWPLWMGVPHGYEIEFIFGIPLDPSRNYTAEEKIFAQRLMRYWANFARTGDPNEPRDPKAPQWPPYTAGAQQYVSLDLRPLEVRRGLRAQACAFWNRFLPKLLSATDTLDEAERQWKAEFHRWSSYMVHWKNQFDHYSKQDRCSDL

Row | SMILES | inhibition (Acetylcholinesterase [1]) | pIC50 (Acetylcholinesterase [2]) | Activity [3]
1 | C(=C1CNCC2=C1N=C1SC=C(c3ccc4ccccc4c3)N1C2c1ccccc1)c1ccccc1 (configuration not stated) | 41.8% | – | –
2 | Cc1ccc(/C=C2\CN(Cc3ccc4ccccc4c3)C/C(=C\c3ccc(C)cc3)C2=O)cc1 | 72.6% | 5.80 | –
3 | Cc1ccc(C=C2CNCC3=C2N=C2SC=C(c4ccc(Br)cc4)N2C3c2ccc(C)cc2)cc1 (configuration not stated) | 64.6% | 5.64 | –
4 | Clc1ccc(C=C2CNCC3=C2N=C2SC=C(c4ccc(Br)cc4)N2C3c2ccc(Cl)cc2)cc1 (configuration not stated) | 41.6% | – | –
5 | Cc1cccc(CN2C/C(=C\c3ccc(Br)cc3)C(=O)/C(=C/c3ccc(Br)cc3)C2)c1 | 45.7% | – | –
6 | Clc1ccc(C=C2CNCC3=C2N=C2SC=C(c4ccccc4)N2C3c2ccc(Cl)cc2)cc1 (configuration not stated) | 41.6% | – | –
7 | Brc1ccc(C2=CSC3=NC4=C(CNCC4=Cc4ccccc4)C(c4ccccc4)N23)cc1 (configuration not stated) | 48.7% | – | –
8 | Cc1cccc(CN2C/C(=C\c3ccc(Cl)cc3)C(=O)/C(=C/c3ccc(Cl)cc3)C2)c1 | 41.6% | – | –
9 | C(=C1CNCC2=C1N=C1SC=C(c3ccccc3)N1C2c1ccccc1)c1ccccc1 (configuration not stated) | 48.6% | – | –
10 | Cc1ccc(C2=CSC3=NC4=C(CNCC4=Cc4ccc(Cl)cc4)C(c4ccc(Cl)cc4)N23)cc1 (configuration not stated) | 74.7% | 5.96 | Non-Toxic
11 | Cc1cccc(CN2C/C(=C\c3ccccc3)C(=O)/C(=C/c3ccccc3)C2)c1 | 63.1% | 5.50 | –
12 | Cc1ccc(/C=C2\CN(Cc3cccc(C)c3)C/C(=C\c3ccc(C)cc3)C2=O)cc1 | 59.8% | 5.49 | –
13 | O=C1/C(=C/c2ccccc2)CN(Cc2ccc3ccccc3c2)C/C1=C\c1ccccc1 | 67.9% | 5.71 | –
14 | Clc1ccc(C=C2CNCC3=C2N=C2SC=C(c4ccc5ccccc5c4)N2C3c2ccc(Cl)cc2)cc1 (configuration not stated) | 62.8% | 5.87 | –
15 | Brc1ccc(C=C2CNCC3=C2N=C2SC=C(c4ccc(Br)cc4)N2C3c2ccc(Br)cc2)cc1 (configuration not stated) | 48.3% | – | –
16 | O=C1/C(=C/c2ccc(Br)cc2)CN(Cc2ccc3ccccc3c2)C/C1=C\c1ccc(Br)cc1 | 67.2% | 6.08 | Non-Toxic
17 | Cc1ccc(C=C2CNCC3=C2N=C2SC=C(c4ccc(C)cc4)N2C3c2ccc(C)cc2)cc1 (configuration not stated) | 60.4% | 5.74 | –
18 | Brc1ccc(C=C2CNCC3=C2N=C2SC=C(c4ccccc4)N2C3c2ccc(Br)cc2)cc1 (configuration not stated) | 66.7% | 5.83 | –
19 | Cc1ccc(C2=CSC3=NC4=C(CNCC4=Cc4ccc(Br)cc4)C(c4ccc(Br)cc4)N23)cc1 (configuration not stated) | 68.3% | 6.00 | Non-Toxic
20 | Cc1ccc(C=C2CNCC3=C2N=C2SC=C(c4ccc5ccccc5c4)N2C3c2ccc(C)cc2)cc1 (configuration not stated) | 69.6% | 6.01 | Non-Toxic
21 | O=C1/C(=C/c2ccc(Cl)cc2)CN(Cc2ccc3ccccc3c2)C/C1=C\c1ccc(Cl)cc1 | 42.4% | – | –
22 | Cc1ccc(C=C2CNCC3=C2N=C2SC=C(c4ccccc4)N2C3c2ccc(C)cc2)cc1 (configuration not stated) | 45.7% | – | –
23 | Brc1ccc(C=C2CNCC3=C2N=C2SC=C(c4ccc5ccccc5c4)N2C3c2ccc(Br)cc2)cc1 (configuration not stated) | 65.7% | 6.14 | Non-Toxic
24 | Cc1ccc(C2=CSC3=NC4=C(CNCC4=Cc4ccccc4)C(c4ccccc4)N23)cc1 (configuration not stated) | 42.1% | – | –

— ChEMBL document CHEMBL3871299, “Design and synthesis of new piperidone grafted acetylcholinesterase inhibitors” (Bioorg Med Chem Lett, 2017)
